Experimental data published in ChEMBL document CHEMBL4043158, “Synthesis and carbonic anhydrase inhibition of polycyclic imides incorporating N-benzenesulfonamide moieties” (Bioorg Med Chem, 2017).

Target: Carbonic anhydrase 9 (Homo sapiens, UniProt Q16790)
Test: Inhibition of human CA9 pre-incubated for 10 mins by stopped-flow CO2 hydrase assay

| SMILES | Ki [nM] |
| --- | --- |
| NS(=O)(=O)c1ccc(N2C(=O)c3cccc4cccc(c34)C2=O)cc1 | 287 |
| NS(=O)(=O)c1ccc(CN2C(=O)c3cccc4cc([N+](=O)[O-])cc(c34)C2=O)cc1 | 251 |
| NS(=O)(=O)c1ccc(CCn2c(=O)c3cc4c(=O)n(CCc5ccc(S(N)(=O)=O)cc5)c(=O)c4cc3c2=O)cc1 | 2050 |
| NS(=O)(=O)CCN1C(=O)c2ccc3c4c(ccc(c24)C1=O)C(=O)N(CCc1ccc(S(N)(=O)=O)cc1)C3=O | 25.5 |
| NS(=O)(=O)c1ccc(N2C(=O)c3ccc4c5c(ccc(c35)C2=O)C(=O)N(c2ccc(S(N)(=O)=O)cc2)C4=O)cc1 | 23.9 |
| NS(=O)(=O)c1ccc(Cn2c(=O)c3cc4c(=O)n(Cc5ccc(S(N)(=O)=O)cc5)c(=O)c4cc3c2=O)cc1 | 639 |
| NS(=O)(=O)c1ccc(CN2C(=O)c3ccc4c5c(ccc(c35)C2=O)C(=O)N(Cc2ccc(S(N)(=O)=O)cc2)C4=O)cc1 | 2780 |
| NS(=O)(=O)c1ccc(CCN2C(=O)c3cccc4cccc(c34)C2=O)cc1 | 108 |

More lines, in order of falling Ki, values ahead:

| Ki [nM] | SMILES |
| --- | --- |
| 301 | NS(=O)(=O)c1ccc(CCn2c(=O)c3ccccc3c3ccccc3c2=O)cc1 |
| 251 | NS(=O)(=O)c1ccc(-n2c(=O)c3cc4c(=O)n(-c5ccc(S(N)(=O)=O)cc5)c(=O)c4cc3c2=O)cc1 |
| 242 | NS(=O)(=O)c1ccc(CCN2C(=O)c3cccc4cc([N+](=O)[O-])cc(c34)C2=O)cc1 |
| 218 | NS(=O)(=O)c1ccc(N2C(=O)c3cccc4cc([N+](=O)[O-])cc(c34)C2=O)cc1 |
| 191 | NS(=O)(=O)c1ccc(Cn2c(=O)c3ccccc3c3ccccc3c2=O)cc1 |
| 108 | NS(=O)(=O)c1ccc(CN2C(=O)c3cccc4cccc(c34)C2=O)cc1 |
| 93.1 | NS(=O)(=O)c1ccc(-n2c(=O)c3ccccc3c3ccccc3c2=O)cc1 |
